Data on six compounds can be found in patent US7186731B2, “2-cyanopyrrolidinecarboxamide compound” (Astellas Pharma Inc., priority 2003, dated 2007).

Structures can show the parent of a compound that is named as a salt.

Tested on in the first data set: not given
Assay: not given
Conditions: not given
One may read the melting point as the temperature, or range, at which the solid turns liquid. `CC1(NCC(=O)N2C[C@@H](F)C[C@H]2C#N)CCN(c2cnccn2)CC1` [Example 10-8, (2S,4S)-4-Fluoro-1-({[4-methyl-1-(2-pyrazinyl)-4-piperidinyl]amino}acetyl)-2-pyrrolidinecarbonitrile] registered a melting point of 166 to 167 °C.

For the next data set, the target named is T1, human plasma DPP-IV (Homo sapiens, UniProt P27487).
T1 construct: from tissue; host or cells: human plasma
T1 sequence (P27487 39-766 limits assumed): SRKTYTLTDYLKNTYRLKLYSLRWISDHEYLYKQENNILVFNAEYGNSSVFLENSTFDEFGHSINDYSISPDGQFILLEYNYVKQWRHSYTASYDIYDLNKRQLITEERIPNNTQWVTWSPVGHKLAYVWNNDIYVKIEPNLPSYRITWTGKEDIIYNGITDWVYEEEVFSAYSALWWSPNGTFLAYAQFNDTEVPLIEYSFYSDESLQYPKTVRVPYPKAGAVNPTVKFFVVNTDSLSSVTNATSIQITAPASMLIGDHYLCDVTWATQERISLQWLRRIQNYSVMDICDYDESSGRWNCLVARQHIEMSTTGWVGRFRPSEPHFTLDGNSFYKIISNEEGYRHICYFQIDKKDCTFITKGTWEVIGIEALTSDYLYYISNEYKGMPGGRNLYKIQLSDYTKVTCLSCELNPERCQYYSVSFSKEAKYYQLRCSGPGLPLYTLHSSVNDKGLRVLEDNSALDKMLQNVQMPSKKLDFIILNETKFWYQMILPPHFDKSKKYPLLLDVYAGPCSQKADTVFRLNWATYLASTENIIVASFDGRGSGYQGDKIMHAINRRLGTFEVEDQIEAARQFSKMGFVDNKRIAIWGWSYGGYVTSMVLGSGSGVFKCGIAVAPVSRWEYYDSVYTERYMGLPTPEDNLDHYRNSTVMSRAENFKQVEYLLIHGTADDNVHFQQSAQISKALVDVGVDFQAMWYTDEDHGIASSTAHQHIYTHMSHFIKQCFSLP
The experiment in a line: Inhibition Test of Human Plasma DPP-IV. In kind it is biochemical. Particulars: substrate H-glycine-proline-AMC, 20 minutes incubation at room temperature, fluorescence. How it is done: Inhibition Test of Human Plasma DPP-IV
Briefly, 20 μL of human plasma were mixed with 20 μL of 80 mM MgCl2 in assay buffer (25 mM HEPES, 140 mM NaCl, 1% RIA-grade BSA, pH7.8), and were incubated in a room temperature for 60 minutes. Then the reaction was initiated by the addition of both 20 μL of test compounds and 20 μL of 0.2 mM substrate (H-glycine-proline-AMC; AMC is 7-amino-4-methylcoumarine), they were dissolved in the assay buffer.
After 20 minutes incubation in a room temperature (kept in the dark), fluorescence was measured (Excitation 380 nm, Emission 460 nm). A fluorescence-concentration curve of free AMC was obtained using AMC solution in the assay buffer with appropriate concentration. Plasma DPP-IV activities, with or without the test compounds, were expressed as the amount of product per minute per mL. The potency of the test compounds as DPP-IV inhibitor was expressed as IC50.
As a reminder, the IC50 is the concentration that inhibits the measured activity by half. A higher IC50 goes with a need for much substance. As to `CC1(NCC(=O)N2C[C@@H](F)C[C@H]2C#N)CCOCC1` [Example 7-12, (2S,4S)-4-Fluoro-1-{[(4-methyltetrahydro-2H-pyran-4-yl)amino]acetyl}-2-pyrrolidinecarbonitrile], the IC50 was 15 nM.

`N#C[C@@H]1C[C@H](F)CN1C(=O)[C@H]1N[C@@H]2C[C@H]1C[C@H]2O` [Example 45-3, (2S,4S)-4-Fluoro-1-{[(1R,3S,4S,6R)-6-hydroxy-2-azabicyclo[2.2.1]hept-3-yl]carbonyl}-2-pyrrolidinecarbonitrile hydrochloride] showed an IC50 of 4.7 nM.

`N#C[C@@H]1CCCN1C(=O)[C@H]1N[C@H]2CC[C@@H]1[C@H](O)C2` [Example 2-8, (2S)-1-{[(1S,3S,4S,5R)-5-hydroxy-2-azabicyclo[2.2.2]oct-3-yl]carbonyl}-2-pyrrolidinecarbonitrile hydrochloride] registered an IC50 of 8.5 nM. This IC50 lies about 1.8-fold higher than the previous one.

`N#C[C@@H]1CCCN1C(=O)[C@H]1N[C@@H]2C[C@H]1C[C@H]2O` [Example 5-8, (2S)-1-{[(1R,3S,4S,6R)-6-hydroxy-2-azabicyclo[2.2.1]hept-3-yl]carbonyl}-2-pyrrolidinecarbonitrile hydrochloride] had an IC50 of 8.7 nM. The IC50 values of the last two compounds are within 1.5-fold of each other.

`CC1(NCC(=O)N2C[C@@H](F)C[C@H]2C#N)CCN(c2cnccn2)CC1` [Example 10-8, (2S,4S)-4-Fluoro-1-({[4-methyl-1-(2-pyrazinyl)-4-piperidinyl]amino}acetyl)-2-pyrrolidinecarbonitrile] gave an IC50 of 13 nM.

`N#C[C@@H]1CCCN1C(=O)[C@H]1N[C@@H]2C[C@H]1C[C@H]2OCCO` [Example 25-3, (2S)-1-{[(1R,3S,4S,6R)-6-(2-hydroxyethoxy)-2-azabicyclo[2.2.1]hept-3-yl]carbonyl}-2-pyrrolidinecarbonitrile hydrochloride] showed an IC50 of 4.5 nM.
